Measured values as given in US20120029187A1, “HALOALKYLSULFONANILIDE DERIVATIVE” (Nissan Chemical Industries, Ltd., priority 2009, published 2012).

Experiments:
Type in all cases: in vivo
barnyardgrass [1] = assay: Test Example 1: herbicidal effects in preemergence treatment under submerged conditions; details: dose 2.52 g/a
Outline: (§1)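 Alluvial soil was flooded to 4 cm, sown with barnyardgrass, bulrush and ducksalad, and planted with 2.5-leaf rice seedlings. On the seeding day, water-diluted emulsifiable concentrates were applied to the water surface at set doses (g/a). After three weeks in a 25 to 30° C. greenhouse, mortality was scored 0–5.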

ducksalad [2] = assay: as above; details: dose 2.52 g/a
Outline: as §1

bulrush [3] = assay: as above; details: dose 2.52 g/a
Outline: as §1

barnyardgrass [4] = assay: Test Example 4: herbicidal effect in foliage treatment; details: dose 3.2 g/a, three weeks after application
Outline: (§2)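 Doses are given in grams per are of applied compound, sprayed as water-diluted emulsifiable concentrate onto foliage of 14-day-old plants grown at 25 to 30° C. Herbicidal activity was assessed visually on a rating scale after three weeks.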

beadstraw [5] = assay: as above; details: dose 3.2 g/a, three weeks after application
Outline: as §2

large crabgrass [6] = assay: as above; details: dose 3.2 g/a, three weeks after application
Outline: as §2

common chickweed [7] = assay: as above; details: dose 3.2 g/a, three weeks after application
Outline: as §2

common ragweed [8] = assay: as above; details: dose 3.2 g/a, three weeks after application
Outline: as §2

redroot pigweed [9] = assay: as above; details: dose 3.2 g/a, three weeks after application
Outline: as §2

posumbu knotweed [10] = assay: as above; details: dose 3.2 g/a, three weeks after application
Outline: as §2

velvetleaf [11] = assay: as above; details: dose 3.2 g/a, three weeks after application
Outline: as §2

Italian ryegrass [12] = assay: as above; details: dose 3.2 g/a, three weeks after application
Outline: as §2

giant foxtail [13] = assay: as above; details: dose 3.2 g/a, three weeks after application
Outline: as §2

common lambsquater [14] = assay: as above; details: dose 3.2 g/a, three weeks after application
Outline: as §2

water foxtail [15] = assay: as above; details: dose 3.2 g/a, three weeks after application
Outline: as §2

barnyardgrass [16] = assay: Test Example 3: herbicidal effects in soil treatment; details: dose 3.2 g/a
Outline: (§3)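 Seeds were sown in sterilized diluvial soil and covered with about 1.5 cm of soil. Compounds, formulated as emulsifiable concentrates and diluted with water, were sprayed evenly over the soil surface at set doses in g/a. Herbicidal effect was scored on a rating scale three weeks later.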

beadstraw [17] = assay: as above; details: dose 3.2 g/a
Outline: as §3

large crabgrass [18] = assay: as above; details: dose 3.2 g/a
Outline: as §3

common chickweed [19] = assay: as above; details: dose 3.2 g/a
Outline: as §3

common ragweed [20] = assay: as above; details: dose 3.2 g/a
Outline: as §3

redroot pigweed [21] = assay: as above; details: dose 3.2 g/a
Outline: as §3

posumbu knotweed [22] = assay: as above; details: dose 3.2 g/a
Outline: as §3

velvetleaf [23] = assay: as above; details: dose 3.2 g/a
Outline: as §3

Italian ryegrass [24] = assay: as above; details: dose 3.2 g/a
Outline: as §3

giant foxtail [25] = assay: as above; details: dose 3.2 g/a
Outline: as §3

common lambsquater [26] = assay: as above; details: dose 3.2 g/a
Outline: as §3

water foxtail [27] = assay: as above; details: dose 3.2 g/a
Outline: as §3

transplanted rice = assay: Test Example 1: preemergence treatment under submerged conditions, effect on crop; details: dose 2.52 g/a
Outline: as §1

barnyardgrass [28] = assay: Test Example 2: herbicidal effects during the vegetation period under submerged conditions; details: treatment during the vegetation period under submerged conditions; dose 2.52 g/a
Outline: (§4)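 Barnyardgrass, bulrush and ducksalad were co-sown in alluvial soil flooded to 4 cm and grown in a greenhouse at 25 to 30° C. At the 1- or 2-leaf stage, water-diluted emulsifiable concentrates went onto the water surface at set doses (g/a). Herbicidal effect was scored three weeks later on a graded scale.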

ducksalad [29] = assay: as above; details: treatment during the vegetation period under submerged conditions; dose 2.52 g/a
Outline: as §4

bulrush [30] = assay: as above; details: treatment during the vegetation period under submerged conditions; dose 2.52 g/a
Outline: as §4

Row | Structure (SMILES) | A: barnyardgrass, herbicidal effect (evaluation scale 0-5) (barnyardgrass [1]) | C: ducksalad, herbicidal effect (evaluation scale 0-5) (ducksalad [2]) | B: bulrush, herbicidal effect (evaluation scale 0-5) (bulrush [3]) | A: barnyardgrass, herbicidal effect (barnyardgrass [4]) | O: beadstraw, herbicidal effect (beadstraw [5]) | D: large crabgrass, herbicidal effect (large crabgrass [6]) | N: common chickweed, herbicidal effect (common chickweed [7]) | J: common ragweed, herbicidal effect (common ragweed [8]) | K: redroot pigweed, herbicidal effect (redroot pigweed [9]) | M: posumbu knotweed, herbicidal effect (posumbu knotweed [10]) | I: velvetleaf, herbicidal effect (velvetleaf [11]) | H: Italian ryegrass, herbicidal effect (Italian ryegrass [12]) | E: giant foxtail, herbicidal effect (giant foxtail [13]) | L: common lambsquater, herbicidal effect (common lambsquater [14]) | G: water foxtail, herbicidal effect (water foxtail [15]) | A: barnyardgrass, herbicidal effect (evaluation scale 0-5) (barnyardgrass [16]) | O: beadstraw, herbicidal effect (evaluation scale 0-5) (beadstraw [17]) | D: large crabgrass, herbicidal effect (evaluation scale 0-5) (large crabgrass [18]) | N: common chickweed, herbicidal effect (evaluation scale 0-5) (common chickweed [19]) | J: common ragweed, herbicidal effect (evaluation scale 0-5) (common ragweed [20]) | other results
1 | CCOC(=O)N(c1ccccc1CN1COC(C)(c2cc(Cl)nn2C)CC1=O)S(=O)(=O)C(F)(F)F (centres unmarked) [II-60] | 5 (mortality of 90% or above (nearly complete death)) | 5 (mortality of 90% or above (nearly complete death)) | 5 (mortality of 90% or above (nearly complete death)) | 4 (mortality of at least 70% and less than 90%) | 4 (mortality of at least 70% and less than 90%) | 3 (mortality of at least 40% and less than 70%) | 4 (mortality of at least 70% and less than 90%) | 3 (mortality of at least 40% and less than 70%) | 0 (mortality of less than 5% (almost ineffective)) | 2 (mortality of at least 20% and less than 40%) | 3 (mortality of at least 40% and less than 70%) | 3 (mortality of at least 40% and less than 70%) | 3 (mortality of at least 40% and less than 70%) | 2 (mortality of at least 20% and less than 40%) | 5 (mortality of 90% or above (nearly complete death)) | 5 (mortality of 90% or above (nearly complete death)) | 0 (mortality of less than 5% (almost ineffective)) | 4 (mortality of at least 70% and less than 90%) | 4 (mortality of at least 70% and less than 90%) | 1 (mortality of at least 5% and less than 20%) | K: redroot pigweed, herbicidal effect (evaluation scale 0-5) (redroot pigweed [21]): 4 (mortality of at least 70% and less than 90%); M: posumbu knotweed, herbicidal effect (evaluation scale 0-5) (posumbu knotweed [22]): 3 (mortality of at least 40% and less than 70%); I: velvetleaf, herbicidal effect (evaluation scale 0-5) (velvetleaf [23]): 4 (mortality of at least 70% and less than 90%); H: Italian ryegrass, herbicidal effect (evaluation scale 0-5) (Italian ryegrass [24]): 3 (mortality of at least 40% and less than 70%); E: giant foxtail, herbicidal effect (evaluation scale 0-5) (giant foxtail [25]): 5 (mortality of 90% or above (nearly complete death)); L: common lambsquater, herbicidal effect (evaluation scale 0-5) (common lambsquater [26]): 1 (mortality of at least 5% and less than 20%); G: water foxtail, herbicidal effect (evaluation scale 0-5) (water foxtail [27]): 5 (mortality of 90% or above (nearly complete death)); a: transplanted rice, effect on crop (evaluation scale 0-5) (transplanted rice): 0 (mortality of less than 5% (almost ineffective)); A: barnyardgrass, herbicidal effect (evaluation scale 0-5) (barnyardgrass [28]): 5 (mortality of 90% or above (nearly complete death)); C: ducksalad, herbicidal effect (evaluation scale 0-5) (ducksalad [29]): 5 (mortality of 90% or above (nearly complete death)); B: bulrush, herbicidal effect (evaluation scale 0-5) (bulrush [30]): 5 (mortality of 90% or above (nearly complete death))
2 | CCC(=O)N(c1ccccc1CN1COC2(CCC2)CC1=O)S(=O)(=O)C(F)(F)F [II-62] | 5 (mortality of 90% or above (nearly complete death)) | 5 (mortality of 90% or above (nearly complete death)) | 5 (mortality of 90% or above (nearly complete death)) | 5 (mortality of 90% or above (nearly complete death)) | 4 (mortality of at least 70% and less than 90%) | 5 (mortality of 90% or above (nearly complete death)) | 4 (mortality of at least 70% and less than 90%) | 4 (mortality of at least 70% and less than 90%) | 3 (mortality of at least 40% and less than 70%) | 4 (mortality of at least 70% and less than 90%) | 5 (mortality of 90% or above (nearly complete death)) | 4 (mortality of at least 70% and less than 90%) | 5 (mortality of 90% or above (nearly complete death)) | 4 (mortality of at least 70% and less than 90%) | 5 (mortality of 90% or above (nearly complete death)) | 5 (mortality of 90% or above (nearly complete death)) | 4 (mortality of at least 70% and less than 90%) | 5 (mortality of 90% or above (nearly complete death)) | 5 (mortality of 90% or above (nearly complete death)) | 4 (mortality of at least 70% and less than 90%) | K: redroot pigweed, herbicidal effect (evaluation scale 0-5) (redroot pigweed [21]): 4 (mortality of at least 70% and less than 90%); M: posumbu knotweed, herbicidal effect (evaluation scale 0-5) (posumbu knotweed [22]): 5 (mortality of 90% or above (nearly complete death)); I: velvetleaf, herbicidal effect (evaluation scale 0-5) (velvetleaf [23]): 5 (mortality of 90% or above (nearly complete death)); H: Italian ryegrass, herbicidal effect (evaluation scale 0-5) (Italian ryegrass [24]): 5 (mortality of 90% or above (nearly complete death)); E: giant foxtail, herbicidal effect (evaluation scale 0-5) (giant foxtail [25]): 5 (mortality of 90% or above (nearly complete death)); L: common lambsquater, herbicidal effect (evaluation scale 0-5) (common lambsquater [26]): 4 (mortality of at least 70% and less than 90%); G: water foxtail, herbicidal effect (evaluation scale 0-5) (water foxtail [27]): 5 (mortality of 90% or above (nearly complete death)); a: transplanted rice, effect on crop (evaluation scale 0-5) (transplanted rice): 0 (mortality of less than 5% (almost ineffective)); A: barnyardgrass, herbicidal effect (evaluation scale 0-5) (barnyardgrass [28]): 5 (mortality of 90% or above (nearly complete death)); C: ducksalad, herbicidal effect (evaluation scale 0-5) (ducksalad [29]): 5 (mortality of 90% or above (nearly complete death)); B: bulrush, herbicidal effect (evaluation scale 0-5) (bulrush [30]): 5 (mortality of 90% or above (nearly complete death))
